Where a name gives a salt, the structure may show the parent alone.
Experiments:
[1] = biological target: T1, S1P1 (Homo sapiens, UniProt P21453); assay: S1P1 Binding Assay (33P-S1P competition, CHO membranes); conditions: membranes of CHO cells expressing human S1P1, 33P-S1P ligand; read-out: S1P1 B IC50
T1 construct: expressed in transfected cells; host or cells: CHO cells
Protocol: Membranes were prepared from CHO cells expressing human S1P1. Cells were dissociated in buffer containing 20 mM HEPES, pH 7.5, 50 mM NaCl, 2 mM EDTA and Protease Inhibitor cocktail (Roche), and disrupted on ice using the Polytron homogenizer. The homogenate was centrifuged at 20,000 rpm (48,000 g) and the supernatant was discarded. The membrane pellets were resuspended in buffer containing 50 mM HEPES, pH 7.5, 100 mM NaCl, 1 mM MgCl2, 2 mM EDTA and stored in aliquots at −80° C. after protein concentration determination.
Membranes (2 μg/well) and 0.03 nM final concentration of ^33P-S1P ligand (1 mCi/ml, American Radiolabeled Chemicals) were added to the compound plates. Binding was performed for 60 min at room temperature, terminated by collecting the membranes onto GF/B filter plates, and radioactivity was measured by TOPCOUNT®. The competition data of the test compounds over a range of concentrations was plotted as percentage inhibition of radioligand specific binding. The IC50 is defined as the concentration of competing ligand needed to reduce specific binding by 50%.
Compounds of the present invention and Comparative Compound A were tested in the S1P1 binding assay described hereinabove and the results rounded to two digits, shown in Table A were obtained. In some instances, the value is an average of multiple experiments where N is the number of experiments conducted that provided satisfactory dose response curves. When more than one batch of an example was tested, the value presented is from the batch which allowed a comparison of GTPγS S1P1 and GTPγS S1P3 in Method A (Data shown in Table B). Data was not averaged across different batches of an example compound.

[2] = biological target: T1, S1P1; assay: Method A: Receptor [35S] GTPγS Binding Assay, S1P1; format: biochemical; conditions: for EC50: Method A, S1P1/CHO cell membranes; for GTPγS S1P3/S1P1 (Method A): ratio of S1P3 EC50 to S1P1 EC50, Method A
Protocol: (§1) Method A: Receptor [35S] GTPγS Binding Assays
(§2) Compounds were loaded in a 384 FALCON® v-bottom plate (0.5 μl/well in a 3-fold dilution). Membranes prepared from S1P1/CHO cells or EDG3-Gal5-bla HEK293T cells were added to the compound plate (40 μl/well, final protein 3 μg/well) with MULTIDROP®. [^35S]GTP (1250 Ci/mmol, Perkin Elmer) was diluted in assay buffer: 20 mM HEPES, pH7.5, 10 mM MgCl2, 150 mM NaCl, 1 mM EGTA, 1 mM DTT, 10 μM GDP, 0.1% fatty acid free BSA, and 10 μg/ml Saponin to 0.4 nM. 40 μl of the [^35S] GTP solution was added to the compound plate with a final concentration of 0.2 nM. The reaction was kept at room temperature for 45 min. At the end of incubation, all the mixtures in the compound plate were transferred to a 384 well FB filter plates via GPCR robot system. The filter plate was washed with water 4 times by using the modified manifold Embla plate washer and dried at 60° C. for 45 min. 30 μA of MicroScint 20 scintillation fluid was added to each well for counting at Packard TOPCOUNT®. EC50 is defined as the agonist concentration that corresponds to 50% of the Ymax (maximal response) obtained for each individual compound tested.
(§3) Compounds of the present invention and Comparative Compound A were tested in the Receptor [^35S] GTPγS Binding Assays (Method A) and Receptor [^35S] In some instances, the value is an average of multiple experiments where N is the number of experiments conducted that provided satisfactory dose response curves. When more than one batch of an example was tested, the value presented is from a batch which allowed a comparison of GTPγS S1P1 and GTPγS S1P3 in which the most number of experiments were performed. Preferably, the same batch was examined in Method A and Method B. Data was not averaged across different batches of an example compound.

[3] = biological target: T1, S1P1; assay: Method B: Receptor [35S] GTPγS SPA Binding Assay, S1P1; format: biochemical; conditions: for EC50: Method B (SPA), S1P1 transfected CHO cell membranes; for GTPγS S1P3/S1P1 (Method B): ratio of S1P3 EC50 to S1P1 EC50, Method B
Protocol: (§4) Method B: Receptor [^35S] GTPγS SPA Binding Assays
(§5) Membranes prepared from S1P1 or S1P3 transfected CHO cells (2 μg protein) were incubated in 96-well white plates (CORNING® 3693) with test compounds diluted in DMSO, in 50 μl of reaction mixture containing 7.5 μA WGA-PVT beads (20 mg/ml), and 5 μM GDP, 20 mM HEPES pH 7.4, 100 mM NaCl, 1 mM EDTA, 5 mM MgCl2, 10 μg/ml saponin, 0.1% BSA, and 1 μM leupeptin. The assay was initiated with the addition of […] of 0.2 nM [^35S]-GTPγS (1250 Ci/mmol; NEN) in assay buffer. After 90 min incubation at room temperature, spin the plate at 1000 rpm for 5 min. The bound radionuclides were measured at TOPCOUNT®, expressed as % response relative to S1P (1 μM) activation. Data was analyzed using the four parameter logistic equation in Excel. The four parameters in the equation, Y=A+((B−A)/(1+((EC50/X)^D))), are described as following: A is the Y value (agonist activity) at the bottom plateau; B is the Y value at the top plateau; EC50 is the X value (agonist concentration) when the response is halfway between bottom and top; D is Hill coefficient. Curves were not generated for compounds having Ymax values were below 50%.
as §3

[4] = system: circulating lymphocytes; assay: Blood Lymphocyte Reduction Assay (BLR) in rats; format: in vivo, Lewis rats; conditions: oral
Protocol: (§6) Blood Lymphocyte Reduction Assay (BLR) in Rodents
(§7) Lewis rats or BALB/c mice were dosed orally with test article (as a solution or suspension in the vehicle) or vehicle alone (polyethylene glycol 300, “PEG300”). Blood was drawn at 4 hr and 24 h by retro-orbital bleeding. Blood lymphocyte counts were determined on an ADVIA 120 Hematology Analyzer (Siemens Healthcare Diagnostics). The results were measured as a reduction in the percentage of circulating lymphocytes as compared to the vehicle treated group at the 4 hr and 24 hr measurement. The results represent the average results of all animals within each treatment group (n=3-4).
(§8) Compounds of the present invention were tested in the Blood Lymphocyte Reduction assay (BLR) described hereinabove and the results are shown in Table D for rats and Table E for mice.

[5] = system: circulating lymphocytes; assay: Blood Lymphocyte Reduction Assay (BLR) in mice; format: in vivo, BALB/c mice; conditions: oral
Protocol: as §6, §7, §8

[6] = system: Lewis rats; assay: Rat Adjuvant Induced Arthritis Assay (AA); format: in vivo; conditions: for Paw Swelling (mL) on Day 21, Mean: vehicle mean 1.58
Protocol: Rat Adjuvant Induced Arthritis Assay (AA)
Male Lewis rats (150-175 g; Harlan, n=8 treatment group) were immunized at the base of the tail with 100 μl of 10 mg/ml freshly ground Mycobacterium butyricum (Difco Laboratories) in incomplete Freund's adjuvant (sigma). Animals were dosed once daily with the test article (as a solution or suspension in the vehicle) or vehicle alone (polyethylene glycol 300, “PEG300”) starting from the day of immunization. The volumes of their hind paws were measured in a water displacement plethysmometer (Ugo Basile, Italy). The baseline paw measurements were taken before onset of the disease (between day 7 to day 10). The paw measurements were then taken three times a week until the end of the study on day 20 to 21. All procedures involving animals were reviewed and approved by the Institutional Animal Care Use Committee.
Compounds of the present invention were tested in the Rat Adjuvant Induced Arthritis assay described hereinabove and the results are shown in Table F and Table G.

[7] = biological target: T2, S1P3 (Homo sapiens, UniProt Q99500); assay: Method B: Receptor [35S] GTPγS SPA Binding Assay, S1P3; format: biochemical; set-up: expressed in transfected cells; host or cells: CHO cells; conditions: S1P3 transfected CHO cell membranes
T2 sequence (Q99500 whole entry): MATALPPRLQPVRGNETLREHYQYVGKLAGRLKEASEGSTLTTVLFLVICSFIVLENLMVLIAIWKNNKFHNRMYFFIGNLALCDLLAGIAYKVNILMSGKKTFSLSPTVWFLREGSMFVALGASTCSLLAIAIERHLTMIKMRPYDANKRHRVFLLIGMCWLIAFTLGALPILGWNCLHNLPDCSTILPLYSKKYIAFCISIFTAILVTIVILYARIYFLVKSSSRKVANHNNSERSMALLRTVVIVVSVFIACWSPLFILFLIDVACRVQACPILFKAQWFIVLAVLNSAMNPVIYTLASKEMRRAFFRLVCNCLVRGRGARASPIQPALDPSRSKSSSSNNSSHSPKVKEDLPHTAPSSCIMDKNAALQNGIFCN
Protocol: as §4, §5, §3

[8] = biological target: T2, S1P3; assay: Method A: Receptor [35S] GTPγS Binding Assay, S1P3; format: biochemical; set-up: expressed in transfected cells; conditions: EDG3-Gal5-bla HEK293T cell membranes
Protocol: as §1, §2, §3

T1 sequence (P21453 whole entry): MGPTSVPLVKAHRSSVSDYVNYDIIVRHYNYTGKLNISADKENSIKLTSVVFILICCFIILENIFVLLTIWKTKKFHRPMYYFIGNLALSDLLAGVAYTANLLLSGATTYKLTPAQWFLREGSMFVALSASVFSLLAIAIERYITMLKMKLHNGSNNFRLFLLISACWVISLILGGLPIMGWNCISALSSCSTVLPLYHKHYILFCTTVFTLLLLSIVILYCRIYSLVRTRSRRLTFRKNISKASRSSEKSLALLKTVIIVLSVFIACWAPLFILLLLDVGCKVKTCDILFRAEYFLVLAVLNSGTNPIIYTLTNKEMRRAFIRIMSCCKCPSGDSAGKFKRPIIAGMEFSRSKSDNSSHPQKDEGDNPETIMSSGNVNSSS

## O=C(O)C1CN(Cc2ccc(-c3noc(-c4cnn(-c5ccccc5)c4C(F)(F)F)n3)cc2)C1 [Example 2, 1-(4-(5-(1-Phenyl-5-(trifluoromethyl)-1H-pyrazol-4-yl)-1,2,4-oxadiazol-3-yl)benzyl)azetidine-3-carboxylic acid]
[1]
  IC50: 0.3 nM
[2]
  EC50: 1.9 nM
[3]
  EC50: 0.17 nM
  GTPγS S1P3/S1P1 (Method B): 12,000
[4]; 0.04 mg/kg
  % reduction in lymphocytes at 4 hr.: 64%
  % reduction in lymphocytes at 24 hr.: 8%
[4]; 0.2 mg/kg
  % reduction in lymphocytes at 4 hr.: 76%
  % reduction in lymphocytes at 24 hr.: 55%
[4]; 1.0 mg/kg
  % reduction in lymphocytes at 4 hr.: 76%
  % reduction in lymphocytes at 24 hr.: 79%
[5]; 0.04 mg/kg
  % reduction in lymphocytes at 4 hr.: 68%
  % reduction in lymphocytes at 24 hr.: 5%
[5]; 0.2 mg/kg
  % reduction in lymphocytes at 4 hr.: 76%
  % reduction in lymphocytes at 24 hr.: 64%
[5]; 1.0 mg/kg
  % reduction in lymphocytes at 4 hr.: 80%
  % reduction in lymphocytes at 24 hr.: 82%
[5]; 3.0 mg/kg
  % reduction in lymphocytes at 4 hr.: 73%
  % reduction in lymphocytes at 24 hr.: 89%
[6]; 0.2 mg/kg once daily
  Paw Swelling (mL) on Day 21, Mean: 02.12 mL
[6]; 1.0 mg/kg once daily
  Paw Swelling (mL) on Day 21, Mean: 0.91 mL
[6]; 3.0 mg/kg once daily
  Paw Swelling (mL) on Day 21, Mean: 0.19 mL
[6]; 10.0 mg/kg once daily
  Paw Swelling (mL) on Day 21, Mean: 0.10 mL
[6]; Lewis rat, prophylactic oral dosing
  disease progression as measured by paw swelling: inhibit disease progression
[7]
  EC50: 2100 nM

## Cc1c(-c2nc(-c3ccc(CN4CC(C(=O)O)C4)cc3)no2)cnn1-c1ccccc1 [Example 5, 1-(4-(5-(5-methyl-1-phenyl-1H-pyrazol-4-yl)-1,2,4-oxadiazol-3-yl)benzyl)azetidine-3-carboxylic acid]
[1]
  IC50: 30 nM
[2]
  EC50: 260 nM
  GTPγS S1P3/S1P1 (Method A): 50
[3]
  EC50: 17 nM
[8]
  EC50: 13000 nM

## CCCc1c(-c2nc(-c3ccc(CN4CC(C(=O)O)C4)cc3)no2)cnn1-c1ccccn1 [Example 6, 1-(4-(5-(5-propyl-1-(pyridin-2-yl)-1H-pyrazol-4-yl)-1,2,4-oxadiazol-3-yl)benzyl)azetidine-3-carboxylic acid]
[1]
  IC50: 0.12 nM
[2]
  EC50: 4.2 nM
  GTPγS S1P3/S1P1 (Method A): 690
[8]
  EC50: 2900 nM
[7]
  EC50: 1300 nM

## O=C(O)C1CN(Cc2ccc(-c3noc(-c4cnn(-c5ccccc5)c4-c4cccnc4)n3)cc2)C1 [Example 15, 1-(4-(5-(1-Phenyl-5-(pyridin-3-yl)-1H-pyrazol-4-yl)-1,2,4-oxadiazol-3-yl)benzyl)azetidine-3-carboxylic acid, 2,2,2-trifluoroacetic acid salt]
[1]
  IC50: 5.4 nM
[2]
  EC50: 52 nM
  GTPγS S1P3/S1P1 (Method A): 69
[3]
  EC50: 2.2 nM
  GTPγS S1P3/S1P1 (Method B): 1,900
[8]
  EC50: 3600 nM
[7]
  EC50: 4100 nM
